Values quoted from earlier work in PubChem BioAssay AID1259409 (Chemical Carcinogenesis Research Information System (CCRIS), 2018).

Test system: rodent chemically induced tumor inhibition, incidence and multiplicity
Assay: CCRIS tumor inhibitor studies

## O=C1O[C@H]([C@@H](O)CO)C(O)=C1O
Carcinogen: 7,12-DIMETHYLBENZ[A]ANTHRACENE, 57-97-6, Dose [Inhibitor]: 0, 5000 PPM IN DRINKING WATER FOR 5 MO (STUDY DURATION: 5 MO), Route [Inhibitor]: ORAL, Species: RAT, Strain/Sex: SWISS/FEMALE, Target Tissue: Type of Lesion: MAMMARY GLAND: CRIBRIFORM CARCINOMA, Dose [Carcinogen]: 10 MG ONCE, Promoter: NONE USED
  tumour outcome (control, treated, inhibition, significance): 85%, 50%, 41%, not calculated
Carcinogen: 7,12-DIMETHYLBENZ[A]ANTHRACENE, 57-97-6, Dose [Inhibitor]: 0.2% IN 0.25 ML OF 20:80 WATER-ACETONE DAILY FOR 20 D BEGINNING 1 D POST CARCINOGEN TREATMENT (STUDY DURATION: 19 WK), Route [Inhibitor]: DERMAL, Species: MOUSE, Strain/Sex: ICR/FEMALE, Target Tissue: Type of Lesion: SKIN: PAPILLOMA, Dose [Carcinogen]: 0.125 MG IN 0.25 ML ACETONE ONCE, Promoter: CROTON OIL, 8001-28-3
  tumour outcome (control, treated, inhibition, significance): 43%, 48%, -12%, not significant
Carcinogen: 7,12-DIMETHYLBENZ[A]ANTHRACENE, 57-97-6, Dose [Inhibitor]: 1000 UG APPLIED ONCE 5 MIN PRIOR TO CARCINOGEN DOSE (STUDY DURATION: 28 WK), Route [Inhibitor]: DERMAL, Species: MOUSE, Strain/Sex: CD-1/FEMALE, Target Tissue: Type of Lesion: SKIN: PAPILLOMA, Dose [Carcinogen]: 2.56 UG ONCE, Promoter: 12-O-TETRADECANOYLPHORBOL-13-ACETATE, 16561-29-8
  tumour outcome (control, treated, inhibition, significance): 82%, 56%, 32%, not calculated
Carcinogen: 17BETA-ESTRADIOL, 50-28-2, Dose [Inhibitor]: 1% (W/V) IN REVERSED OSMOSIS DEIONIZED DRINKING WATER FOR 103 D STARTING 93 D AFTER START OF STUDY (STUDY DURATION: 196, Route [Inhibitor]: ORAL, Species: HAMSTER, Strain/Sex: SYRIAN/MALE, Target Tissue: Type of Lesion: KIDNEY: CARCINOMA, Dose [Carcinogen]: 90% OF 31 MG PELLET AT START OF STUDY AND 90% OF 45 MG PELLET 3 MO LATER, Promoter: NONE USED
  tumour outcome (control, treated, inhibition, significance): 16/23 (70%), 9/19 (47%), 33%, not significant
Carcinogen: 17BETA-ESTRADIOL, 50-28-2, Dose [Inhibitor]: 1% (W/V) IN REVERSED OSMOSIS DEIONIZED DRINKING WATER FOR FIRST 92 D OF STUDY (STUDY DURATION: 196 D), Route [Inhibitor]: ORAL, Species: HAMSTER, Strain/Sex: SYRIAN/MALE, Target Tissue: Type of Lesion: KIDNEY: CARCINOMA, Dose [Carcinogen]: 90% OF 31 MG PELLET AT START OF STUDY AND 90% OF 45 MG PELLET 3 MO LATER, Promoter: NONE USED
  tumour outcome (control, treated, inhibition, significance): 16/23 (70%), 15/17 (88%), -26%, not significant
Carcinogen: 17BETA-ESTRADIOL, 50-28-2, Dose [Inhibitor]: 1% IN REVERSED OSMOSIS DEIONIZED DRINKING WATER FOR DURATION OF STUDY (STUDY DURATION: 196 D), Route [Inhibitor]: ORAL, Species: HAMSTER, Strain/Sex: SYRIAN/MALE, Target Tissue: Type of Lesion: KIDNEY: CARCINOMA, Dose [Carcinogen]: 90% OF 31 MG PELLET AT START OF STUDY AND 90% OF 45 MG PELLET 3 MO LATER, Promoter: NONE USED
  tumour outcome (control, treated, inhibition, significance): 16/23 (70%), 10/33 (30%), 57%, p<0.005
Carcinogen: AMINOPYRENE, 1606-67-3, SODIUM NITRITE, 7632-00-0, Carcinogen: AMINOPYRENE, 1606-67-3, SODIUM NITRITE, 7632-00-0, Dose [Inhibitor]: 7 G/KG OF DIET FOR DURATION OF STUDY (STUDY DURATION: 40 WK), Route [Inhibitor]: ORAL, Species: RAT, Strain/Sex: SPRAGUE-DAWLEY/MALE, Target Tissue: Type of Lesion: LIVER: TUMORS, Dose [Carcinogen]: AMINOPYRENE 1 G/L AND SODIUM NITRITE 1 G/L IN DRINKING WATER 5 D/WK FOR 40 WK, Promoter: NONE USED
  tumour outcome (control, treated, inhibition, significance): 12/37 (32%), 0/39 (0%), 100%, not calculated
Carcinogen: AMINOPYRENE, 1606-67-3, SODIUM NITRITE, 7632-00-0, Carcinogen: AMINOPYRENE, 1606-67-3, SODIUM NITRITE, 7632-00-0, Dose [Inhibitor]: 7 G/KG OF DIET FOR DURATION OF STUDY (STUDY DURATION: 40 WK), Route [Inhibitor]: ORAL, Species: RAT, Strain/Sex: SPRAGUE-DAWLEY/MALE, Target Tissue: Type of Lesion: LUNG: TUMORS, Dose [Carcinogen]: AMINOPYRENE 1 G/L AND SODIUM NITRITE 1 G/L IN DRINKING WATER 5 D/WK FOR 40 WK, Promoter: NONE USED
  tumour outcome (control, treated, inhibition, significance): 25/37 (68%), 13/39 (33%), 51%, not calculated
Carcinogen: AMINOPYRENE, 1606-67-3, SODIUM NITRITE, 7632-00-0, Carcinogen: AMINOPYRENE, 1606-67-3, SODIUM NITRITE, 7632-00-0, Dose [Inhibitor]: 7 G/KG OF DIET FOR THE DURATION OF STUDY (STUDY DURATION: 40 WK), Route [Inhibitor]: ORAL, Species: RAT, Strain/Sex: SPRAGUE-DAWLEY/MALE, Target Tissue: Type of Lesion: KIDNEY: TUMORS, Dose [Carcinogen]: AMINOPYRINE 1 G/L AND SODIUM NITRITE 1 G/L IN DRINKING WATER 5 D/WK FOR 40 WK, Promoter: NONE USED
  tumour outcome (control, treated, inhibition, significance): 10/37 (27%), 7/39 (18%), 33%, not calculated
Carcinogen: BENZO[A]PYRENE, 50-32-8, Dose [Inhibitor]: 0, 10 MG/ML IN DRINKING WATER FOR 6 WK (STUDY DURATION: 9 WK), Route [Inhibitor]: ORAL, Species: MOUSE, Strain/Sex: NIGP(S)/FEMALE, Target Tissue: Type of Lesion: LUNG: ADENOMA, Dose [Carcinogen]: 0.5 MG INJECTED IN THE SCAPULAR REGION OF NEWBORN MICE ONCE, Promoter: NONE USED
  tumour outcome (control, treated, inhibition, significance): 56%, 35%, 38%, not calculated
Carcinogen: BENZO[A]PYRENE, 50-32-8, Dose [Inhibitor]: 0, 10 MG/ML IN DRINKING WATER FOR 6 WK (STUDY DURATION: 9 WK), Route [Inhibitor]: ORAL, Species: MOUSE, Strain/Sex: NIGP(S)/MALE, Target Tissue: Type of Lesion: LUNG: ADENOMA, Dose [Carcinogen]: 0.5 MG INJECTED IN THE SCAPULAR REGION OF NEWBORN MICE ONCE, Promoter: NONE USED
  tumour outcome (control, treated, inhibition, significance): 38%, 24%, 37%, not calculated
Carcinogen: BENZO[A]PYRENE, 50-32-8, Dose [Inhibitor]: 0.068 MMOL/G IN DIET FOR 5 WK BEGINNING 1 WK PRIOR TO CARCINOGEN DOSE (STUDY DURATION: 21 WK), Route [Inhibitor]: ORAL, Species: MOUSE, Strain/Sex: ICR/HA/FEMALE, Target Tissue: Type of Lesion: FORESTOMACH: TUMOR, Dose [Carcinogen]: 1 MG IN 0.2 ML CORN OIL 2/WK FOR 4 WK, Promoter: NONE USED
  tumour outcome (control, treated, inhibition, significance): 100%, 95%, 5%, not significant
Carcinogen: DIETHYLNITROSAMINE, 55-18-5, Dose [Inhibitor]: 0, 3 G/L IN DRINKING WATER BEGINNING 1 D PRIOR TO FIRST CARCINOGEN DOSE AND CONTINUING TO 2 D POST LAST CARCINOGEN DOSE, Route [Inhibitor]: ORAL, Species: RAT, Strain/Sex: BD6/FEMALE, Target Tissue: Type of Lesion: ESOPHAGUS: TUMOR, Dose [Carcinogen]: 80 MG/KG BW 1/WK FOR 8 WK, Promoter: NONE USED
  tumour outcome (control, treated, inhibition, significance): 31%, 28%, 10%, not significant
